In ChEMBL document CHEMBL1201862, “PubChem BioAssay data set” (2004):
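Compound exposure: 48 hours, 5 concentrations, 96-well plates. GI50: concentration for 50% inhibition of growth.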 Calls of active or inactive are those of the source. Cut-off read from the data, not from the text of the source: active = GI50 up to about 1.1 µM and inactive = higher. Where a SMILES comes first, the peptide text is derived from it. The star is where a group is joined. Cbz = O=C(OCc1ccccc1)*; Bn = c1ccc(C*)cc1

How the values were obtained:
Assay in all cases: NCI-60 cell line screen, 48 h
SW-620 = system: SW-620
SK-MEL-5 = system: SK-MEL-5
HT-29 = system: HT-29
UO-31 = system: UO-31
CCRF-CEM = system: CCRF-CEM
HCT-116 = system: HCT-116
SF-539 = system: SF-539
T47D = system: T47D
A549 = system: A549
U-251 = system: U-251
Hs-578T = system: Hs-578T
HOP-62 = system: HOP-62
SK-MEL-28 = system: SK-MEL-28
MDA-MB-435 = system: MDA-MB-435
NCI-H226 = system: NCI-H226
OVCAR-8 = system: OVCAR-8
NCI-H460 = system: NCI-H460
OVCAR-5 = system: OVCAR-5
SK-OV-3 = system: SK-OV-3
K562 = system: K562

| SMILES | GI50 (SW-620) | GI50 (SK-MEL-5) | GI50 (HT-29) | GI50 (UO-31) | GI50 (CCRF-CEM) | GI50 (HCT-116) | GI50 (SF-539) | GI50 (T47D) | GI50 (A549) | GI50 (U-251) | GI50 (Hs-578T) | GI50 (HOP-62) | GI50 (SK-MEL-28) | GI50 (MDA-MB-435) | GI50 (NCI-H226) | GI50 (OVCAR-8) | GI50 (NCI-H460) | GI50 (OVCAR-5) | GI50 (SK-OV-3) | GI50 (K562) |
| --- | --- | --- | --- | --- | --- | --- | --- | --- | --- | --- | --- | --- | --- | --- | --- | --- | --- | --- | --- | --- |
| CC1(C)C[C@H]2C=C(C=O)[C@]34C[C@]3(C(=O)OC4O)[C@H]2C1 (stereo not given in full) | 3.92 µM (inactive) | 1.63 µM (inactive) | 1.87 µM (inactive) | 1.83 µM (inactive) | 0.813 µM (active) | 1.14 µM (inactive) | 1.68 µM (inactive) | 0.459 µM (active) | 2.83 µM (inactive) | 8.77 µM (inactive) | 3.21 µM (inactive) | 14.2 µM (inactive) | 2.92 µM (inactive) | 2.35 µM (inactive) | 6.61 µM (inactive) | 1.1 µM (active) | 18.1 µM (inactive) | 2.37 µM (inactive) | 16 µM (inactive) | 4.58 µM (inactive) |
| O=C(Cc1ccccc1)NN1C(=O)/C(=C\c2ccc(O)cc2)S/C1=N\c1ccccc1 | > 100 µM (inactive) | > 100 µM (inactive) | > 100 µM (inactive) | > 100 µM (inactive) | > 100 µM (inactive) | > 100 µM (inactive) | > 100 µM (inactive) | 41 µM (inactive) | > 100 µM (inactive) | > 100 µM (inactive) | > 100 µM (inactive) | > 100 µM (inactive) | > 100 µM (inactive) | > 100 µM (inactive) | > 100 µM (inactive) | > 100 µM (inactive) | > 100 µM (inactive) | > 100 µM (inactive) | > 100 µM (inactive) | > 100 µM (inactive) |
| O=C(O)CN1C(=O)OC(c2ccccc2)C1=O (stereo not given) | > 100 µM (inactive) | > 100 µM (inactive) | > 100 µM (inactive) | > 100 µM (inactive) | > 100 µM (inactive) | > 100 µM (inactive) | > 100 µM (inactive) | > 100 µM (inactive) | > 100 µM (inactive) | > 100 µM (inactive) | > 100 µM (inactive) | > 100 µM (inactive) | > 100 µM (inactive) | > 100 µM (inactive) | > 100 µM (inactive) | > 100 µM (inactive) | > 100 µM (inactive) | > 100 µM (inactive) | > 100 µM (inactive) | > 100 µM (inactive) |
| CCCCN(CC)c1nc(C)nc2c1c(C)c(C)n2-c1c(C)cc(C)cc1C [ANTALARMIN] | 15.7 µM (inactive) | 5.21 µM (inactive) | 10.5 µM (inactive) | 14.7 µM (inactive) | 11.3 µM (inactive) | 10.1 µM (inactive) | 2.69 µM (inactive) | 10.7 µM (inactive) | 14.2 µM (inactive) | 11.7 µM (inactive) | 16.9 µM (inactive) | 17.2 µM (inactive) | 15.8 µM (inactive) | 17.1 µM (inactive) | 14.8 µM (inactive) | 14.2 µM (inactive) | 13.2 µM (inactive) | 15.3 µM (inactive) | 17.1 µM (inactive) | 12.5 µM (inactive) |
| Nc1c2c(=O)[nH]c(=O)c2c(N)c2c(=O)c3ccccc3c(=O)c12 | 1.69 µM (inactive) | 0.179 µM (active) | 0.977 µM (active) | 3.81 µM (inactive) | 2.93 µM (inactive) | 4.6 µM (inactive) | 2.04 µM (inactive) | 3.94 µM (inactive) | 0.897 µM (active) | 3.61 µM (inactive) | 2.62 µM (inactive) | 3.13 µM (inactive) | 2.03 µM (inactive) | 0.478 µM (active) | 1.85 µM (inactive) | 1.82 µM (inactive) | 0.869 µM (active) | 1.82 µM (inactive) | 7.23 µM (inactive) | 3.02 µM (inactive) |
| COC(=O)C(Cc1ccc(O)cc1)NC(=O)C(COCc1ccccc1)NC(=O)OCc1ccccc1 (stereo not given) (Cbz-Ser(Bn)-Tyr-OMe; configuration not given here) | 18.8 µM (inactive) | 17 µM (inactive) | 15.1 µM (inactive) | 21.9 µM (inactive) | 71.4 µM (inactive) | 20.9 µM (inactive) | 18.8 µM (inactive) | 17.7 µM (inactive) | 19.4 µM (inactive) | 18.7 µM (inactive) | 24.6 µM (inactive) | 19 µM (inactive) | 20.9 µM (inactive) | 19.1 µM (inactive) | 20.1 µM (inactive) | 17.8 µM (inactive) | 4.13 µM (inactive) | 19.8 µM (inactive) | 17.4 µM (inactive) | > 100 µM (inactive) |
